Measured values taken from article PMC8355704, “Designing Modular Cell-free Systems for Tunable Biotransformation of L-phenylalanine to Aromatic Compounds” (Frontiers in Bioengineering and Biotechnology, 2021).

Assays:
Format in all cases: biochemical
[1] = molecular target: T1, phenylalanine ammonia lyase 2 (PAL2) (Arabidopsis thaliana, UniProt P45724); experiment: GC-MS detection of product cinnamic acid in cell-free expression mixture; details: unpurified E. coli CFPS lysate; control without plasmid
T1 construct: codon-optimised gene in pET28a (NdeI/SalI), made by E. coli cell-free protein synthesis, not purified
T1 sequence (P45724 whole entry): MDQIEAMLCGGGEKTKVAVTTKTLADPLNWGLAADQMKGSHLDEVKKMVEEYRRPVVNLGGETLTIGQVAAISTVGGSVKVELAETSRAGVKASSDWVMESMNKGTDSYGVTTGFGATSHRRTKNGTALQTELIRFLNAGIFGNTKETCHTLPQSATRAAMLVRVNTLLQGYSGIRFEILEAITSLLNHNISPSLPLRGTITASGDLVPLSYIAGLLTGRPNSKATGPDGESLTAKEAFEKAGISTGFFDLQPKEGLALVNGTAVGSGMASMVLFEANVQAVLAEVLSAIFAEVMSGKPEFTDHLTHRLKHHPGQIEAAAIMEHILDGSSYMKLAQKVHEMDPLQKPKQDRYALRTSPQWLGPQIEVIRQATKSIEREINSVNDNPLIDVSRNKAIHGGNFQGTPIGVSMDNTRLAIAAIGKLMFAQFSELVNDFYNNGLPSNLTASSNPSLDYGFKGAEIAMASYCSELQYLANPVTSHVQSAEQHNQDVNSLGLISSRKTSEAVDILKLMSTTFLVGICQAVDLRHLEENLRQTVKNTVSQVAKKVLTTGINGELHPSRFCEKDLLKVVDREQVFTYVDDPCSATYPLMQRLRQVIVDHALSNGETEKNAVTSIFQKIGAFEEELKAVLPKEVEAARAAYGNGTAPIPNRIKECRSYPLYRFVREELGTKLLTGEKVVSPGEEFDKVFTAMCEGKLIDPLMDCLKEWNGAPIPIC

[2] = molecular target: T2, phenylacrylic acid decarboxylase (PAD, containing two enzymes Fdc1 and Pad1) (Aspergillus niger, UniProt A2QHE5); experiment: GC-MS detection of product styrene in cell-free expression mixture; details: unpurified E. coli CFPS lysate; control without plasmid; Fdc1 coexpressed with Pad1
T2 construct: codon-optimised Fdc1 and Pad1 genes in pET28a, coexpressed by E. coli cell-free protein synthesis, not purified; with Flavin prenyltransferase PAD1, mitochondrial

[3] = molecular target: T3, styrene monooxygenase (SMO, consisting of two subunit enzymes StyA and StyB) (Pseudomonas sp., UniProt O50214); experiment: GC-MS detection of product styrene oxide in cell-free expression mixture; details: unpurified E. coli CFPS lysate; control without plasmid; StyA coexpressed with StyB; NADH from lysate
T3 construct: pET28a-StyA and pET28a-StyB coexpressed by E. coli cell-free protein synthesis, two separate chains, not purified; with Styrene monooxygenase StyB (NADH-flavin oxidoreductase component)
T3 sequence (O50214 1-415): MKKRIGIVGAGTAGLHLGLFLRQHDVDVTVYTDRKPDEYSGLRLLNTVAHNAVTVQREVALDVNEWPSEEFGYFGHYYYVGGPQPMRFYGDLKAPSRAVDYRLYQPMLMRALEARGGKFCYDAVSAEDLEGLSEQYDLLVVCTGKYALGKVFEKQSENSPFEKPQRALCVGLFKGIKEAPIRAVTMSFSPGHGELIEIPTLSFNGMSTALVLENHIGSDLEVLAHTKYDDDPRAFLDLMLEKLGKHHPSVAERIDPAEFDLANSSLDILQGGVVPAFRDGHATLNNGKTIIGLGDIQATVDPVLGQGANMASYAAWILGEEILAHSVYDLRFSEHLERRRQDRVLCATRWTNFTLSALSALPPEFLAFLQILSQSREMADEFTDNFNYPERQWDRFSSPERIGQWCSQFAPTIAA

[4] = molecular target: T4, styrene oxide isomerase (StyC, SOI) (Pseudomonas sp. VLB120, UniProt O50216); experiment: GC-MS detection of product phenylacetaldehyde in cell-free expression mixture; details: unpurified E. coli CFPS lysate; control without plasmid
T4 construct: gene stdC; codon-optimised gene in pET28a, made by E. coli cell-free protein synthesis, not purified; membrane protein
T4 sequence (O50216 1-169): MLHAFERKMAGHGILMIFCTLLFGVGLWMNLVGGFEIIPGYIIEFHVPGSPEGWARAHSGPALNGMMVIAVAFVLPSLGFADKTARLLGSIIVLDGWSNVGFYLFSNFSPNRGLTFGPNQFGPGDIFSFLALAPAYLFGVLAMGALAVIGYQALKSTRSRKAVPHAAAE

N[C@@H](Cc1ccccc1)C(=O)O [compound 1, L-phenylalanine]
GC-MS detection of product cinnamic acid in cell-free expression mixture [1]: each target compound was detected by GC-MS

O=C(O)/C=C/c1ccccc1 [compound 2, cinnamic acid]
GC-MS detection of product styrene in cell-free expression mixture [2]: the conversion of cinnamic acid to styrene requires two enzymes Fdc1 and Pad1

C=Cc1ccccc1 [compound 3, styrene]
GC-MS detection of product styrene oxide in cell-free expression mixture [3]: two subunit enzymes StyA and StyB to oxidize styrene to styrene oxide

c1ccc(C2CO2)cc1 (stereo not shown) [compound 4, styrene oxide]
GC-MS detection of product phenylacetaldehyde in cell-free expression mixture [4]: all cell-free expressed enzymes were active to convert their substrates to the corresponding products
